Experimental data: US12084434B2 (Scorpion Therapeutics, Inc., priority 2021, dated 2024)
pIC50: −log10 of the molar value.

tested on: T47D pAKT (S473), PI3Kα H1047R mutation present; test: HTRF pAKT-T47D; conditions: Homo sapiens, T47D, 1 h, read-out: T47D pAKT IC50 (nM), T47D.1 cells, pAKT (S473) HTRF, 1 hour;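 also: assay medium was RPMI with 10% FBS and 0.2 units/ml bovine insulin, without phenol red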
Protocol: Homogenous Time-Resolved Fluorescence (HTRF)—pAKT-T47D
Compounds were assayed using homogeneous time-resolved fluorescence (HTRF).
Gibco RPMI 1640 Medium, no phenol red; Gibco RPMI 1640 Medium; Gibco Trypsin-EDTA (0.5%), no phenol red; Gibco DPBS; Trypan blue solution 0.4% (Corning); Avantor Seradigm Premium Grade Fetal Bovine Serum (FBS); Greiner 784080-384 well TC treated white plates; pAKT (Ser473) HTRF; Gibco Insulin, human recombinant, zinc solution; Gibco Recovery Cell Culture Freezing Medium; Countess II FL Automated Cell Counter (ThermoFisher); Countess II Slides (ThermoFisher); Microscope; and PHERAstar FSX Microplate Reader (BMG LABTECH, Inc.).
The scinamic cell line ID was T47D.1, the HTRF detection was pAKT (S473), a PI3Kα H1047R mutation was present, the seeding density was 5000, the timepoint was 1 hour, and the medium used was RPMI+10% FBS (no phenol red)+0.2 units/ml bovine insulin.
• The cell density was not permitted to reach 100% confluence. The cells were split 1:5 when they reached ˜80% confluence. • Cells were split twice a week (Mon and Fri). • Cells over passage 18 were not used (˜2 months of maintenance). • Antibiotics were not used for tissue culture maintenance or assays. […] Protocol Day1
The procedure was as follows: • 1. Prepared ARP: • a. Stamped 12.5 nL from 10 μmM source plate to destination plate using Echo. Sealed plate immediately and froze at −20° C. if it was not used on the same day. • b. If a frozen ARP was used, the plate was thawed and spun at 1000 rpm×1 min. • 2. Preparation of cells (adherent): • a. Aspirated media from cells. Washed cells with sterile 1XPBS. Aspirated PBS and added appropriate amount of Trypsin. • b. Once cells were fully trypsinized, added appropriate media to resuspend cells. Transferred cells to a 15 mL or 50 mL conical tube. • c. Counted cells on the Countess II Cell Counter. • 3. Plating of cells: • a. Prepared cells at appropriate plating density. Dispensed 12 μL of diluted cells per well of a Greiner 784080-384 well TC treated white plate using a Multidrop Combi to columns 1-23. Added 12 uL of appropriate phenol free media only to column 24. • b. Placed plates in 37° C. tissue culture incubator for appropriate treatment time (refer to “Assay” table). • 4. Prepared HTRF Lysis Buffer • a. Calculate the amount of HTRF lysis buffer master mix needed to perform the desired experiments plus any extra dead volume required for dispensing (4 μL required per well). […] Add 4 uL Lysis buffer master mix to all wells with sample or DMSO. Centrifuge the plates for 1 minute at 1000 rpm. • c. Incubate at room temperature for 30 minutes. • 5. Prepared HTRF Antibody • a.

IC50 [nM]	SMILES
1000 to 5000	Cc1c([C@@H](NC(=O)Nc2ccc3c(c2)C(=O)OC3)C(C)C)oc2ccc(F)cc12 [Compound 102, 3-[(1S)-1-(5-fluoro-3-methyl-1-benzofuran-2-yl)-2-methylpropyl]-1-(3-oxo-1H-2-benzofuran-5-yl)urea]
< 1000	Cc1c([C@@H](NC(=O)Nc2cnc(N3CCS(=O)(=O)CC3)nc2)C(C)C)oc2ccc(F)cc12 [Compound 146, 1-[2-(1,1-dioxo-1lambda6-thiomorpholin-4-yl)pyrimidin-5-yl]-3-[(1S)-1-(5-fluoro-3-methyl-1-benzofuran-2-yl)-2-methylpropyl]urea]
1000 to 5000	Cc1c([C@@H](NC(=O)Nc2cccc(-c3nnnn3C)c2)C(C)C)oc2ccc(F)cc12 [Compound 125, (S)-1-(1-(5-fluoro-3-methylbenzofuran-2-yl)-2-methylpropyl)-3-(3-(1-methyl-1H-tetrazol-5-yl)phenyl)urea]
> 5000	Cc1c([C@H](NC(=O)Nc2cnc(N3CC[C@@H](O)C3)nc2)C(F)(F)F)oc2c(F)cc(F)cc12 [Compound 207]
< 1000	Cc1c([C@@H](NC(=O)Nc2cnc(N3C[C@@H](O)[C@@H]3C)nc2)C(F)(F)F)oc2ccc(F)cc12 [Compound 170]
> 5000	Cc1c([C@H](NC(=O)Nc2cnc(N3CC[C@H](O)C3)nc2)C(F)(F)F)oc2c(F)cc(F)cc12 [Compound 210]
< 1000	Cc1c([C@@H](NC(=O)Nc2cnc(OCC3(O)CC3)nc2)C(C)C)oc2ccc(F)cc12 [Compound 152]
< 1000	Cc1c([C@@H](NC(=O)Nc2cnc(N3CC4(COC4)C3)nc2)C(C)C)oc2ccc(F)cc12 [Compound 135]
1000 to 5000	Cc1c([C@@H](NC(=O)Nc2ccc3nc[nH]c(=O)c3c2)C(C)C)oc2ccc(F)cc12 [Compound 124, (S)-1-(1-(5-fluoro-3-methylbenzofuran-2-yl)-2-methylpropyl)-3-(4-oxo-3,4-dihydroquinazolin-6-yl)urea]
< 1000	Cc1c([C@@H](NC(=O)Nc2cnc(N3C[C@@H](O)[C@@H]3C)nc2)C(C)C)oc2ccc(F)cc12 (relative stereo) [Compound 148, 3-[(1S)-1-(5-fluoro-3-methyl-1-benzofuran-2-yl)-2-methylpropyl]-1-{2-[(2R*,3R**)-3-hydroxy-2-methylazetidin-1-yl]pyrimidin-5-yl}urea]
< 1000	Cc1c([C@@H](NC(=O)Nc2cnc(N3CC(O)C3)nc2)C(F)(F)F)oc2c(F)cc(F)cc12 (single isomer, unassigned) [Compound 91]
< 1000	Cc1c([C@@H](NC(=O)Nc2cnc3nccn3c2)C(C)C)oc2ccc(F)cc12 [Compound 160, (S)-1-(1-(5-fluoro-3-methylbenzofuran-2-yl)-2-methylpropyl)-3-(imidazo[1,2-a]pyrimidin-6-yl)urea]
1000 to 5000	Cc1c([C@@H](NC(=O)Nc2cnc(N3CC(S(C)(=O)=O)C3)nc2)C(C)C)oc2ccc(F)cc12 [Compound 128, (S)-1-(1-(5-fluoro-3-methylbenzofuran-2-yl)-2-methylpropyl)-3-(2-(3-(methylsulfonyl)azetidin-1-yl)pyrimidin-5-yl)urea]
< 1000	COC1CN(c2ncc(NC(=O)N[C@H](c3oc4ccc(F)cc4c3C)C(C)C)cn2)C1 [Compound 138]
1000 to 5000	Cc1c([C@@H](NC(=O)Nc2cnc(C(N)=O)nc2)C(C)C)oc2ccc(F)cc12 [Compound 78, (S)-5-(3-(1-(5-fluoro-3-methylbenzofuran-2-yl)-2-methylpropyl)ureido)pyrimidine-2-carboxamide]
< 1000	Cc1c([C@@H](NC(=O)Nc2ccc3[nH]ncc3c2)C(F)(F)F)oc2c(F)cc(F)cc12 [Compound 194, 3-[(1R)-1-(5,7-difluoro-3-methyl-1-benzofuran-2-yl)-2,2,2-trifluoroethyl]-1-(1H-indazol-5-yl)urea]
> 5000	Cc1c([C@H](NC(=O)Nc2cnc(N3CC(C(N)=O)C3)nc2)C(F)(F)F)oc2c(F)cc(F)cc12 [Compound 212]
1000 to 5000	Cc1c([C@@H](NC(=O)Nc2cnc(N3CCNCC3)nc2)C(C)C)oc2ccc(F)cc12 [Compound 106, (S)-1-(1-(5-fluoro-3-methylbenzofuran-2-yl)-2-methylpropyl)-3-(2-(piperazin-1-yl)pyrimidin-5-yl)urea]

same assay, conditions: read-out: T47D pAKT IC50; T47D.1 cells, pAKT (S473) HTRF, 1 hour

pIC50	SMILES
> 6.00	Cc1c(C(NC(=O)Nc2cnc(N3CC(O)C3)nc2)C(F)(F)F)oc2c(Cl)cc(F)cc12 (single isomer, unassigned) [Compound 200, 3-[1-(7-chloro-5-fluoro-3-methyl-1-benzofuran-2-yl)-2,2,2-trifluoroethyl]-1-[2-(3-hydroxyazetidin-1-yl)pyrimidin-5-yl] urea]
> 6.00	Cc1c(C(NC(=O)Nc2cnc(N3CCC(O)CC3)nc2)C(F)(F)F)oc2c(F)cc(F)cc12 (single isomer, unassigned) [Compound 192]
< 5.30	Cc1c(C(NC(=O)Nc2ccc(N)nc2)C(F)(F)F)oc2c(F)cc(F)cc12 (centres unmarked) [Compound 181]
< 5.30	Cc1c(C(NC(=O)Nc2cnc(N3CC(O)C3)nc2)C(F)(F)F)oc2c(F)cc(Cl)cc12 (racemic) [Compound 158, 3-[1-(5-chloro-7-fluoro-3-methyl-1-benzofuran-2-yl)-2,2,2-trifluoroethyl]-1-[2-(3-hydroxyazetidin-1-yl)pyrimidin-5-yl]urea]
> 6.00	Cc1c(C(NC(=O)Nc2cnc(N3CC(F)C3)nc2)C(F)(F)F)oc2c(F)cc(F)cc12 (single isomer, unassigned) [Compound 226, 1-(1-(5,7-difluoro-3-methylbenzofuran-2-yl)-2,2,2-trifluoroethyl)-3-(2-(3-fluoroazetidin-1-yl)pyrimidin-5-yl)urea]
< 5.30	Cc1c(C(NC(=O)Nc2cnc(N)nc2)C(F)(F)F)oc2c(C)cc(F)cc12 (single isomer, unassigned) [Compound 213, 1-(2-aminopyrimidin-5-yl)-3-[2,2,2-trifluoro-1-(5-fluoro-3,7-dimethyl-1-benzofuran-2-yl)ethyl]urea]
< 5.30	Cc1c(C(NC(=O)Nc2cnc(N)nc2)C(F)(F)F)oc2c(C3CC3)cc(F)cc12 (single isomer, unassigned) [Compound 217, 1-(2-aminopyrimidin-5-yl)-3-[1-(7-cyclopropyl-5-fluoro-3-methyl-1-benzofuran-2-yl)-2,2,2-trifluoroethyl]urea]
5.30 to 6.00	Cc1c(C(NC(=O)Nc2cnc(N3CCC3)nc2)C(F)(F)F)oc2c(F)cc(F)cc12 (single isomer, unassigned) [Compound 224, 1-(2-(azetidin-1-yl)pyrimidin-5-yl)-3-(1-(5,7-difluoro-3-methylbenzofuran-2-yl)-2,2,2-trifluoroethyl)urea]
< 5.30	Cc1c([C@H](NC(=O)Nc2cnc(NCC(C)(C)O)nc2)C(F)(F)F)oc2c(F)cc(F)cc12 [Compound 184]
> 6.00	Cc1c(C(NC(=O)Nc2cnc(N)nc2)C(F)(F)F)oc2c(C)cc(F)cc12 (single isomer, unassigned) [Compound 214, 1-(2-aminopyrimidin-5-yl)-3-[2,2,2-trifluoro-1-(5-fluoro-3,7-dimethyl-1-benzofuran-2-yl)ethyl]urea]
> 6.00	Cc1c(C(NC(=O)Nc2cnc(N)nc2)C(F)(F)F)oc2c(F)cc(Cl)cc12 (racemic) [Compound 156, 1-(2-aminopyrimidin-5-yl)-3-[1-(5-chloro-7-fluoro-3-methyl-1-benzofuran-2-yl)-2,2,2-trifluoroethyl]urea]
